Data from ChEMBL document CHEMBL3507680, “University of Dundee, Gates Library screen for HepG2 cell viability”.

Assay: Human HepG2 cell viability assay in 384 well format
Assay type: toxicity, cell-based
Design: dose 125 nL, time 70.5 hour; concentration not given beside the values
Conditions: HepG2 cells, read-out: Inhibition

CC(NC(=O)COc1nc(C(C)(C)C)no1)c1ccco1 (configuration not stated)
cytotoxicity at 70.5 h: -6.24%

CN(Cc1ccc(OC(F)F)cc1)C(=O)CS(=O)(=O)c1ccc(Cl)cc1
cytotoxicity at 70.5 h: -9.26%

CC(C)NC(=O)COc1nc(C(C)(C)C)no1
cytotoxicity at 70.5 h: -6.41%

Cc1ccc(CC(=O)NC(C)C(=O)N2CCS(=O)(=O)CC2)cc1 (configuration not stated)
cytotoxicity at 70.5 h: -2.68%

Cn1cccc1C(=O)N1CCC2(CC1)CN(c1ccsc1)C(=O)CO2
cytotoxicity at 70.5 h: -15.9%

CC(=O)NCC(=O)N1C[C@@H](C)[C@@]2(CCN(c3ccsc3)C2=O)C1
cytotoxicity at 70.5 h: -10.5%

Cc1nc(NCC2CC2)nc2c1COCC21CCN(C(=O)NC(C)C)C1 (configuration not stated)
cytotoxicity at 70.5 h: -5.59%

O=C(c1ccccn1)N1CCC2(CC1)CN(c1cncnc1)C(=O)CO2
cytotoxicity at 70.5 h: -12.2%

O=C(c1cscn1)N1CCC[C@]2(C[C@@H](OCC3CC3)CO2)C1
cytotoxicity at 70.5 h: -11%

C[C@H]1C[C@H]2CN(C(=O)CCc3ccccc3)CC[C@H]2O1
cytotoxicity at 70.5 h: -11.5%

COCCC1COC2(CCN(C(=O)Cc3ccccc3)CC2)C1 (configuration not stated)
cytotoxicity at 70.5 h: -13.5%

O=C(CC1CC1)N1CCC2(CC1)CN(c1ncc(F)cn1)CCO2
cytotoxicity at 70.5 h: -9.05%

COCC1CN(C(=O)CC2Cc3ccccc3C2)Cc2c1cnn2C (configuration not stated)
cytotoxicity at 70.5 h: -5.66%

CCc1ncnc2c1CCN(C(=O)c1cccn1C)CC2
cytotoxicity at 70.5 h: 20.2%

O=C(Cc1ccccc1)N1CCC2(CC1)CN(c1ncccn1)CCO2
cytotoxicity at 70.5 h: -9.68%

c1ccc(COC[C@@H]2CC[C@H]3[C@H](CCN3c3ncccn3)O2)nc1
cytotoxicity at 70.5 h: -9.8%

CC(C)N(C)[C@@H]1CCN(C(=O)c2ccc[nH]2)[C@H]1Cc1cnn(C)c1
cytotoxicity at 70.5 h: -8.9%

Cn1cc(C[C@H]2[C@@H](OCC3CC3)CCN2C(=O)c2ccc[nH]2)cn1
cytotoxicity at 70.5 h: 21.2%

COCCO[C@@H]1CCN(C(=O)c2ccc[nH]2)[C@H]1Cc1cnn(C)c1
cytotoxicity at 70.5 h: -7.64%

CCOCC1CN(C(=O)Cc2ccccn2)Cc2c1cnn2CC (configuration not stated)
cytotoxicity at 70.5 h: 23.4%

CC(C)N1CCC2(CC1)CC(c1cccnc1)C(=O)N2 (configuration not stated)
cytotoxicity at 70.5 h: -10.2%

O=C(c1cscn1)N1C[C@H]2CN(Cc3nccs3)C[C@H]2C1
cytotoxicity at 70.5 h: -1.36%

CCOCc1ncn2c1CN(C(=O)c1ccoc1)CC2
cytotoxicity at 70.5 h: -12.2%

O=C(c1ccc[nH]1)N1CCCn2cnc(COCC3CC3)c2C1
cytotoxicity at 70.5 h: -9.86%

O=C(c1cccs1)N1CCc2ncnc(C3CCOC3)c2CC1 (configuration not stated)
cytotoxicity at 70.5 h: -14.6%

O=C(c1cccs1)N1CCCn2cnc(COCC3CC3)c2C1
cytotoxicity at 70.5 h: -12.8%

Cc1occc1C(=O)N1CCc2ncnc(C3CCOC3)c2CC1 (configuration not stated)
cytotoxicity at 70.5 h: -12.9%

O=C(c1ccco1)N1CCCn2cnc(COCC3CC3)c2C1
cytotoxicity at 70.5 h: -7.39%

O=C(c1cscn1)N1CCC2(CCN(Cc3nccs3)CC2)CC1
cytotoxicity at 70.5 h: -14.7%

CCS(=O)(=O)N1CC[C@H]2OCC[C@@]2(C(=O)NC)C1
cytotoxicity at 70.5 h: -9.74%

CNC(=O)[C@@]12CCO[C@@H]1CCN(S(=O)(=O)c1ccccc1F)C2
cytotoxicity at 70.5 h: -13.3%

CC1=C(CCN2CC[C@@H](N3CCC(O)CC3)[C@H](O)C2)C(C)(C)CCC1
cytotoxicity at 70.5 h: -5.02%

Cc1ccc(C)c(NC(=O)N2C[C@H](N(C)C)C[C@H]2CO)c1
cytotoxicity at 70.5 h: -6.76%

COC[C@]1(O)CCN(c2cc(C3CC3)ncn2)CC1(C)C
cytotoxicity at 70.5 h: -10.5%

CCc1nc(C)c(C(=O)N(C)Cc2cnc3ccccn23)o1
cytotoxicity at 70.5 h: -7.82%

COc1ccc(CCC(=O)N2CCNCC2C(=O)N2CCCC2)cc1 (configuration not stated)
cytotoxicity at 70.5 h: -6.16%

CCCc1cc(NCCN2CCNC2=O)n2nccc2n1
cytotoxicity at 70.5 h: -11.5%

CC1CCN(S(=O)(=O)N2CCc3c(c(C(=O)O)nn3CC3CC3)C2)CC1
cytotoxicity at 70.5 h: 1.09%

CCc1nnsc1C(=O)NCCC1CN(C(C)C)CCO1 (configuration not stated)
cytotoxicity at 70.5 h: -7.17%

COC(=O)C1CCCCN1C(=O)c1cn(C/C=C/c2ccccc2)nn1 (configuration not stated)
cytotoxicity at 70.5 h: 23.4%

NCCO[C@H]1C[C@@H](O)C12CCN(C1Cc3ccccc3C1)CC2
cytotoxicity at 70.5 h: 34.2%

COc1ccccc1[C@@H]1CN(Cc2cnc(N(C)C)nc2)C[C@H]1C(=O)O
cytotoxicity at 70.5 h: -6.22%

Cc1ccc2oc(=O)n(CCC(=O)N3CCCC4(CNC(=O)O4)C3)c2c1 (configuration not stated)
cytotoxicity at 70.5 h: -1.82%

CCCN1CCCC2(CCN(C(=O)CCCn3cncn3)C2)C1=O (configuration not stated)
cytotoxicity at 70.5 h: -4.88%

CCn1ccnc1CN(C)c1cc(C2CCCNC2)nc(C)n1 (configuration not stated)
cytotoxicity at 70.5 h: -1.8%

COC[C@@]12CC[C@@H](N3CCOCC3)C[C@H]1CCN(c1nc(CO)cs1)C2
cytotoxicity at 70.5 h: 10.8%

CCOCc1nc2c(c(N3CC=CC3)n1)CCN(Cc1ccco1)CC2
cytotoxicity at 70.5 h: -3.14%

COc1cnc(N2C[C@@H](CN3CCOCC3)C[C@H](CO)C2)nc1
cytotoxicity at 70.5 h: -2.56%

CC(C)Oc1ccc(CN2CCC(Cc3nnc(CO)n3C)CC2)cc1
cytotoxicity at 70.5 h: -0.794%

Cn1c(CN2CCC(O)CC2)nnc1C1CCCN(c2ccncc2)C1 (configuration not stated)
cytotoxicity at 70.5 h: -9.58%

COc1ccc(C(C(=O)O)N(C)Cc2ccon2)cc1Cl (configuration not stated)
cytotoxicity at 70.5 h: -4.56%

CCC[C@H]1CN(S(=O)(=O)c2ccc(-c3c(C)noc3C)s2)C[C@@H]1N
cytotoxicity at 70.5 h: -4.66%

O=C(CCCn1ccnc1)N[C@H]1CN(C2CCCC2)C[C@@H]1C1CC1
cytotoxicity at 70.5 h: -11.7%

COCc1c(C(=O)N2CCCC(N(C)Cc3ccccc3)C2)noc1C (configuration not stated)
cytotoxicity at 70.5 h: -3.62%

Cc1cc(C)n(Cc2cc(C(=O)N3CCCC3c3nccs3)n[nH]2)n1 (configuration not stated)
cytotoxicity at 70.5 h: -13.2%

Cn1ncc(N2CCC(CNC3Cc4ccccc4C3)C2)cc1=O (configuration not stated)
cytotoxicity at 70.5 h: 3.7%

COc1ccccc1OC1CCN(C(=O)c2cnc(C)cc2C)CC1
cytotoxicity at 70.5 h: -5%

O=C1CCOCCN1Cc1ccc(Cl)c(F)c1
cytotoxicity at 70.5 h: 23.1%

COCc1cc(NCc2ccccc2-n2cncn2)ncn1
cytotoxicity at 70.5 h: -10.8%

COCc1ncc(CN2CCC3(CCNC(=O)CC3)CC2)cn1
cytotoxicity at 70.5 h: -5.72%

CCOC(=O)CC(C)Nc1nc(C(C)(C)C)nc2c1cnn2C (configuration not stated)
cytotoxicity at 70.5 h: 22.1%

CCCn1ncc(-c2ccnc(NC3CCCc4ccccc43)n2)c1C (configuration not stated)
cytotoxicity at 70.5 h: 55.9%

O=C1NCCN(Cc2ccoc2)C1CC(=O)N1CCc2sccc2C1 (configuration not stated)
cytotoxicity at 70.5 h: -0.766%

CCCS(=O)(=O)N1CCC2(CCC(=O)N(CCc3cccnc3)C2)CC1
cytotoxicity at 70.5 h: -10.9%

CCc1nc(C)c([C@H]2CN(C)C[C@@H]2C(=O)NCc2ccccn2)[nH]1
cytotoxicity at 70.5 h: -2.64%

COc1ccc(-n2cccn2)c(CN2CCC3(CCCNC3)C2)c1 (configuration not stated)
cytotoxicity at 70.5 h: -7.03%

Cc1cc(Cn2cc(C(C)Cc3ccc4c(c3)OCO4)nn2)n[nH]1 (configuration not stated)
cytotoxicity at 70.5 h: -7.62%

COc1nc2c(cc1C(=O)N1CCCCC1c1ccccn1)CCC2 (configuration not stated)
cytotoxicity at 70.5 h: -6.36%

Cc1cc(NCc2nnc3n2CCC3)n2nc(C)c(C)c2n1
cytotoxicity at 70.5 h: -12.3%

O=C(NCCN1CCOC1=O)c1cnc(-c2cccnc2)nc1
cytotoxicity at 70.5 h: -3.86%

CC1=C(C(=O)N(C)Cc2noc3c2CCCC3)C(C)NC(=O)N1 (configuration not stated)
cytotoxicity at 70.5 h: -0.0225%

c1cc(-c2cscn2)cc(N2CCC(NCCc3cccs3)CC2)c1
cytotoxicity at 70.5 h: 0.55%

COc1cc(F)c(-n2cnc(CCNC(C)=O)c2)cc1F
cytotoxicity at 70.5 h: -10.8%

O=C1CN(Cc2cn(CC3CCN(C4CCSCC4)CC3)nn2)CCN1
cytotoxicity at 70.5 h: 20.3%

CCC1CN(Cc2nnc(C3CC3)o2)CCC(=O)N1Cc1ccccc1 (configuration not stated)
cytotoxicity at 70.5 h: 20.4%

Cc1ccc(CN(CCN(C)C)Cc2nc3ccccc3[nH]2)s1
cytotoxicity at 70.5 h: 11.2%

COCCC1(CO)CCCN(Cc2ccc(C#N)cc2)C1 (configuration not stated)
cytotoxicity at 70.5 h: -1.95%

CSCCCN1C[C@H](NC(=O)c2ccc(C#N)nc2)[C@@H](C2CC2)C1
cytotoxicity at 70.5 h: -0.265%

CCc1nc(NC(=O)NCCc2cscn2)nn1C
cytotoxicity at 70.5 h: -4.65%

COCCC1COC2(CCN(C(=O)c3ccncc3)CC2)C1 (configuration not stated)
cytotoxicity at 70.5 h: 30.8%

CCO[C@@H]1CCN(C(=O)c2ccc[nH]2)[C@@H]1Cc1cccnc1
cytotoxicity at 70.5 h: -6.51%

Cc1nc(COC[C@H]2CC[C@H]3[C@H](CCN3c3ncccn3)O2)cs1
cytotoxicity at 70.5 h: -6.71%

Cn1nc(Cn2ccnc2)c2c1CN(C(=O)c1ccoc1)C2
cytotoxicity at 70.5 h: -9.72%

O=C(c1ccc(F)cc1)N1CC[C@H]2[C@H]1CCN2CC1CCOCC1
cytotoxicity at 70.5 h: -6.57%

Cc1cccc(C(=O)N2CCc3ncnc(C4CCOC4)c3CC2)n1 (configuration not stated)
cytotoxicity at 70.5 h: -0.465%

Cn1cc(N2C(=O)CC[C@@H]3[C@H]2CCN3C(=O)c2cscn2)cn1
cytotoxicity at 70.5 h: -10.2%

Cc1cccc(N2CC3(CCN(Cc4nccn4C)C3)CC2=O)c1 (configuration not stated)
cytotoxicity at 70.5 h: -8.56%

Cn1ccnc1CN1CCC2(CC(=O)N(c3ccc4c(c3)OCO4)C2)C1 (configuration not stated)
cytotoxicity at 70.5 h: -17.1%

Cc1oncc1C(=O)N1CC[C@H]2[C@@H]1CCC(=O)N2c1cccnc1
cytotoxicity at 70.5 h: -14.4%

O=C(c1cscn1)N1CCC2(CN(Cc3nccs3)C2)C1
cytotoxicity at 70.5 h: -11.9%

Cn1cc(CN2CC[C@@H]3[C@@H]2CCN3C(=O)Cc2cccc(F)c2)cn1
cytotoxicity at 70.5 h: -4.59%

O=C(c1cccnc1)N1CCc2ncnc(N3CCOCC3)c2CC1
cytotoxicity at 70.5 h: -7.42%

Cn1cc(CN2CC[C@@H]3[C@@H]2CCN3C(=O)c2cccc(F)c2)cn1
cytotoxicity at 70.5 h: -14.7%

CN(C)CCN1C2(CCN(Cc3nccs3)C2)c2ccccc2S1(=O)=O (configuration not stated)
cytotoxicity at 70.5 h: 24.4%

c1ccc(OC2COC3(CCN(CC4CC4)CC3)C2)nc1 (configuration not stated)
cytotoxicity at 70.5 h: 2.65%

Cn1ncc2c1CN(C(=O)Cc1ccccn1)CC2COCC1CC1 (configuration not stated)
cytotoxicity at 70.5 h: -10.6%

CCn1ncc2c1CN(C(=O)Cc1ccccn1)CC2COC (configuration not stated)
cytotoxicity at 70.5 h: -3.07%

Cc1cnc(N2CC[C@@H]3O[C@H](COCc4ccccn4)CC[C@@H]32)nc1
cytotoxicity at 70.5 h: -1.58%

c1ccc(COC[C@H]2CC[C@H]3[C@H](CCN3c3ncccn3)O2)nc1
cytotoxicity at 70.5 h: -3.8%

c1ccc(O[C@H]2CO[C@@]3(CCN(Cc4ccc5c(c4)OCO5)C3)C2)nc1
cytotoxicity at 70.5 h: 0.478%

O=C(NCc1cccnc1)[C@H]1CC[C@@H]2[C@@H](CCN2c2ncccn2)O1
cytotoxicity at 70.5 h: -6.01%

O=C(c1ccco1)N1CC[C@@H](N2CCOCC2)[C@@H]1Cc1ccncc1
cytotoxicity at 70.5 h: -4.82%

Cc1ccc(N2CCO[C@H]3CN(Cc4ccoc4)C[C@H]32)nn1
cytotoxicity at 70.5 h: 6.75%

CN(Cc1cccnc1)C1CC2(CCN(Cc3ccccn3)CC2)C1
cytotoxicity at 70.5 h: -11.6%

CN(Cc1ccco1)[C@@H]1CN(Cc2cccnc2)[C@@H]2CCCO[C@H]12
cytotoxicity at 70.5 h: -12.5%

c1cc(COC[C@]23COC[C@H]2CN(Cc2ccncc2)C3)ccn1
cytotoxicity at 70.5 h: 9.04%

c1ccc(CN2CCC3(CC2)CCN(Cc2cccnc2)C3)nc1
cytotoxicity at 70.5 h: -9.45%
